US9469616B2, “Cyclic compounds and methods of making and using the same” (Cellceutix Corporation, priority 2011, dated 2016)
Converted amounts (≈) assume the structure as drawn.

tested on: E. coli (25922); assay: MIC assay (Table 1); format: cell-based; settings: Escherichia coli, isolate 25922

`CC(C)(C)c1ccc(-c2cc(-c3cc(OCCCN)cc(OCCCN)c3)cc(-c3cc(OCCCN)cc(OCCCN)c3)c2)cc1` [Compound 113] and `NCCCOc1cc(C#Cc2ccc3ccc(C#Cc4cc(OCCCN)cc(OCCCN)c4)cc3c2)cc(OCCCN)c1` [Compound 120] are the same in MIC50: 3.13 µg/mL (≈ 4.78 µM) for the first, 3.13 µg/mL (≈ 5.04 µM) for the second.

`N=C(N)NCCCOc1cc(OCCCNC(=N)N)cc(-c2cc(-c3ccccc3)cc(-c3cc(OCCCNC(=N)N)cc(OCCCNC(=N)N)c3)c2)c1` [Compound 114] and `N=C(N)NCCCOc1cc(OCCCNC(=N)N)cc(-c2ccc3ccc(-c4cc(OCCCNC(=N)N)cc(OCCCNC(=N)N)c4)cc3c2)c1` [Compound 117] are the same in MIC50: 1.56 µg/mL (≈ 2.03 µM) for the first, 1.56 µg/mL (≈ 2.11 µM) for the second.

tested on: S. aureus (27660); assay: MIC assay (Table 1); format: cell-based; settings: Staphylococcus aureus, isolate 27660

Going from `CC(C)(C)c1ccc(-c2cc(-c3cc(OCCCN)cc(OCCCN)c3)cc(-c3cc(OCCCN)cc(OCCCN)c3)c2)cc1` [Compound 113] to `NCCCOc1cc(C#Cc2ccc3ccc(C#Cc4cc(OCCCN)cc(OCCCN)c4)cc3c2)cc(OCCCN)c1` [Compound 120], the MIC50 rises from 1.56 µg/mL (≈ 2.38 µM) to 3.13 µg/mL (≈ 5.04 µM) (2-fold).

Compared with `N=C(N)NCCCOc1cc(OCCCNC(=N)N)cc(-c2cc(-c3ccccc3)cc(-c3cc(OCCCNC(=N)N)cc(OCCCNC(=N)N)c3)c2)c1` [Compound 114], `N=C(N)NCCCOc1cc(OCCCNC(=N)N)cc(-c2ccc3ccc(-c4cc(OCCCNC(=N)N)cc(OCCCNC(=N)N)c4)cc3c2)c1` [Compound 117] is 2-fold higher in MIC50: 0.78 µg/mL (≈ 1.02 µM) for the first, 1.56 µg/mL (≈ 2.11 µM) for the second.

tested on: E. faecalis (29212); assay: MIC assay (Table 1); format: cell-based; settings: Enterococcus faecalis, isolate 29212
Protocol: (§1) The compounds are screened for antimicrobial activity against a number of clinically relevant pathogens. Minimum Inhibitory Concentrations (MIC) of each of the compounds are determined using standard procedures for clinical ocular isolates of Ciprofloxacin Susceptible (CS) S. aureus (CSSA), Ciprofloxacin Resistant (CR) S. aureus (CRSA), CS S. epidermidis (CSSE), CR S. epidermidis (CRSE), St. pneumoniae (SP), St. viridans group (SV), Moraxella Species (MS) (including Moraxella catarrhalis), H. influenzae (HI), P. aeruginosa (PA), Serratia marcescens (SM), S. aureus fluoroquinolone-susceptible, S. aureus fluoroquinolone-resistant, S. epidermidis (Coagulase-negative Staphylococcus) fluoroquinolone-susceptible, S. epidermidis (Coagulase-negative Staphylococcus) fluoroquinolone-resistant, and Serratia marcescens.
(§2) On the day of testing, a 640 μg/m (1280 μg/m for Serratia marcescens and Pseudomonas aeruginosa) concentration is prepared from a 1% stock solution in 0.01% acetic acid, 0.2% BSA in polypropylene tubes.
(§3) Ten μl of diluted 10× test agents is added to each well of one row of the 96 well polypropylene plates from column 2 to column 12 (column 1 is a control for bacteria alone, with no peptide). […] The same peptide is in each of the 8 rows. One plate contains dilutions of one test agent and 8 bacterial isolates.
(§4) Ninety μl of the bacterial suspensions is dispensed in each well from column 1 to column 12. Each bacterial isolate is placed in one row of a 96 well polypropylene plate containing the test agents. The plates are placed on shaker at 15 minutes at room temperature, and then incubated at 37° C. overnight. MICs are determined visually as the lowest concentration of drug that inhibits visible bacterial growth.
(§5) Data is expressed as MIC50 in μg/ml. The bacterial isolates were as follows: E. coli (25922); S. aureus (27660); E. faecalis (29212); P. aeruginosa (10145); and K. pneumoniae (13883).

`CC(C)(C)c1ccc(-c2cc(-c3cc(OCCCN)cc(OCCCN)c3)cc(-c3cc(OCCCN)cc(OCCCN)c3)c2)cc1` [Compound 113] and `NCCCOc1cc(C#Cc2ccc3ccc(C#Cc4cc(OCCCN)cc(OCCCN)c4)cc3c2)cc(OCCCN)c1` [Compound 120] are the same in MIC50: 1.56 µg/mL (≈ 2.38 µM) for the first, 1.56 µg/mL (≈ 2.51 µM) for the second.

First: N=C(N)NCCCOc1cc(OCCCNC(=N)N)cc(-c2cc(-c3ccccc3)cc(-c3cc(OCCCNC(=N)N)cc(OCCCNC(=N)N)c3)c2)c1 [Compound 114]
Second: N=C(N)NCCCOc1cc(OCCCNC(=N)N)cc(-c2ccc3ccc(-c4cc(OCCCNC(=N)N)cc(OCCCNC(=N)N)c4)cc3c2)c1 [Compound 117]
The MIC50 of the first is 4-fold higher: 3.13 µg/mL (≈ 4.08 µM) for the first, 0.78 µg/mL (≈ 1.05 µM) for the second.

tested on: K. pneumoniae (13883); assay: MIC assay (Table 1); format: cell-based; settings: Klebsiella pneumoniae, isolate 13883, read-out: MIC50 K. Pnuemnoiae
Protocol: as §1, §2, §3, §4, §5

Going from `CC(C)(C)c1ccc(-c2cc(-c3cc(OCCCN)cc(OCCCN)c3)cc(-c3cc(OCCCN)cc(OCCCN)c3)c2)cc1` [Compound 113] to `NCCCOc1cc(C#Cc2ccc3ccc(C#Cc4cc(OCCCN)cc(OCCCN)c4)cc3c2)cc(OCCCN)c1` [Compound 120], the MIC50 rises from 3.13 µg/mL (≈ 4.78 µM) to 6.25 µg/mL (≈ 10.1 µM) (2-fold).

`N=C(N)NCCCOc1cc(OCCCNC(=N)N)cc(-c2cc(-c3ccccc3)cc(-c3cc(OCCCNC(=N)N)cc(OCCCNC(=N)N)c3)c2)c1` [Compound 114] and `N=C(N)NCCCOc1cc(OCCCNC(=N)N)cc(-c2ccc3ccc(-c4cc(OCCCNC(=N)N)cc(OCCCNC(=N)N)c4)cc3c2)c1` [Compound 117] are the same in MIC50: 1.56 µg/mL (≈ 2.03 µM) for the first, 1.56 µg/mL (≈ 2.11 µM) for the second.

tested on: P. aeruginosa (10145); assay: MIC assay (Table 1); format: cell-based; settings: Pseudomonas aeruginosa, isolate 10145

Compared with `CC(C)(C)c1ccc(-c2cc(-c3cc(OCCCN)cc(OCCCN)c3)cc(-c3cc(OCCCN)cc(OCCCN)c3)c2)cc1` [Compound 113], `NCCCOc1cc(C#Cc2ccc3ccc(C#Cc4cc(OCCCN)cc(OCCCN)c4)cc3c2)cc(OCCCN)c1` [Compound 120] is 2-fold lower in MIC50: 12.5 µg/mL (≈ 19.1 µM) for the first, 6.25 µg/mL (≈ 10.1 µM) for the second.

`N=C(N)NCCCOc1cc(OCCCNC(=N)N)cc(-c2cc(-c3ccccc3)cc(-c3cc(OCCCNC(=N)N)cc(OCCCNC(=N)N)c3)c2)c1` [Compound 114] and `N=C(N)NCCCOc1cc(OCCCNC(=N)N)cc(-c2ccc3ccc(-c4cc(OCCCNC(=N)N)cc(OCCCNC(=N)N)c4)cc3c2)c1` [Compound 117] are the same in MIC50: 12.5 µg/mL (≈ 16.3 µM) for the first, 12.5 µg/mL (≈ 16.9 µM) for the second.

tested on: NIH/3T3 cells; assay: Cytotoxicity colorimetric assay; format: cell-based; settings: Mus musculus, NIH3T3, 1 h, one hour incubation in serum-free media
Protocol: Cytotoxicity of the compounds are evaluated in a colorimetric assay using a transformed human liver cell line (HepG2, HB-8065) and an embryonic mouse cell line (NIH/3T3 cells, CRL-1658). This assay measures the bioreduction of a novel tetrazolium compound to a soluble formazan product by viable cells. HepG2 cells are seeded in 96 well plates at 2×10^4 cells/well in MEM medium with 10% fetal bovine serum (FBS) 24 hours prior to use. NIH/3T3 cells are seeded in 96 well plates at 2×10^4 cells/well in DMEM medium with 10% bovine calf serum (BCS) 24 hours prior to use. Cell monolayers are rinsed in serum-free media and incubated for one hour with a Compound in serum-free media. After incubation, the media is replaced with serum supplemented media and live cells are measured using the Cell Titer 96 Aqueous […] Assay kit (Promega, Madison, Wis.). EC50 values are determined using a four parameter logistic equation: Y=Bottom+(Top−Bottom)/(1+10^((Log EC50−X)*HillSlope)). […] Data is expressed as EC50 in μg/ml. Cytotoxicity is evaluated in a colorimetric assay using a transformed human liver cell line (HepG2, HB-8065) and an embryonic mouse cell line (NIH/3T3 cells, CRL-1658). This assay measures the bioreduction of a novel tetrazolium compound to a soluble formazan product by viable cells. HepG2 cells are seeded in 96 well plates at 3×10^4 cells/well in MEM medium with 10% fetal bovine serum (FBS) 24 hours prior to use. NIH/3T3 cells are seeded in 96 well plates at 2×10^4 cells/well in DMEM medium with 10% bovine calf serum (BCS) 24 hours prior to use. Cell monolayers are rinsed in serum-free media and incubated for one hour with test agent in serum-free media. After incubation, the media is replaced with serum supplemented media and live cells are measured using the Cell Titer 96 Aqueous […] Assay kit (Promega, Madison, Wis.). EC50 values are determined using a four parameter logistic equation: Y=Bottom+(Top−Bottom)/(1+10^((Log EC50−X)*HillSlope)).

Compared with `CC(C)(C)c1ccc(-c2cc(-c3cc(OCCCN)cc(OCCCN)c3)cc(-c3cc(OCCCN)cc(OCCCN)c3)c2)cc1` [Compound 113], `NCCCOc1cc(C#Cc2ccc3ccc(C#Cc4cc(OCCCN)cc(OCCCN)c4)cc3c2)cc(OCCCN)c1` [Compound 120] is 6.5-fold lower in EC50: 99.5 µg/mL (≈ 152 µM) for the first, 15.2 µg/mL (≈ 24.5 µM) for the second.

`N=C(N)NCCCOc1cc(OCCCNC(=N)N)cc(-c2cc(-c3ccccc3)cc(-c3cc(OCCCNC(=N)N)cc(OCCCNC(=N)N)c3)c2)c1` [Compound 114] and `N=C(N)NCCCOc1cc(OCCCNC(=N)N)cc(-c2ccc3ccc(-c4cc(OCCCNC(=N)N)cc(OCCCNC(=N)N)c4)cc3c2)c1` [Compound 117] are within 1.5-fold of each other in EC50: 33.6 µg/mL (≈ 43.8 µM) for the first, 31.6 µg/mL (≈ 42.7 µM) for the second.

tested on: HepG2; assay: Cytotoxicity colorimetric assay; format: cell-based; settings: Homo sapiens, HepG2, 1 h, one hour incubation in serum-free media
Protocol: Cytotoxicity of the compounds are evaluated in a colorimetric assay using a transformed human liver cell line (HepG2, HB-8065) and an embryonic mouse cell line (NIH/3T3 cells, CRL-1658). This assay measures the bioreduction of a novel tetrazolium compound to a soluble formazan product by viable cells. HepG2 cells are seeded in 96 well plates at 2×10^4 cells/well in MEM medium with 10% fetal bovine serum (FBS) 24 hours prior to use. NIH/3T3 cells are seeded in 96 well plates at 2×10^4 cells/well in DMEM medium with 10% bovine calf serum (BCS) 24 hours prior to use. Cell monolayers are rinsed in serum-free media and incubated for one hour with a Compound in serum-free media. After incubation, the media is replaced with serum supplemented media and live cells are measured using the Cell Titer 96 Aqueous […] Assay kit (Promega, Madison, Wis.). EC50 values are determined using a four parameter logistic equation: Y=Bottom+(Top−Bottom)/(1+10^((Log EC50−X)*HillSlope)). Actual results from a representative cytotoxicity assay are shown below in Table 3. Data is expressed as EC50 in μg/ml. Cytotoxicity is evaluated in a colorimetric assay using a transformed human liver cell line (HepG2, HB-8065) and an embryonic mouse cell line (NIH/3T3 cells, CRL-1658). This assay measures the bioreduction of a novel tetrazolium compound to a soluble formazan product by viable cells. HepG2 cells are seeded in 96 well plates at 3×10^4 cells/well in MEM medium with 10% fetal bovine serum (FBS) 24 hours prior to use. NIH/3T3 cells are seeded in 96 well plates at 2×10^4 cells/well in DMEM medium with 10% bovine calf serum (BCS) 24 hours prior to use. Cell monolayers are rinsed in serum-free media and incubated for one hour with test agent in serum-free media. After incubation, the media is replaced with serum supplemented media and live cells are measured using the Cell Titer 96 Aqueous […] Assay kit (Promega, Madison, Wis.). EC50 values are determined using a four parameter logistic equation: Y=Bottom+(Top−Bottom)/(1+10^((Log EC50−X)*HillSlope)).

`N=C(N)NCCCOc1cc(OCCCNC(=N)N)cc(-c2cc(-c3ccccc3)cc(-c3cc(OCCCNC(=N)N)cc(OCCCNC(=N)N)c3)c2)c1` [Compound 114] and `NCCCOc1cc(C#Cc2ccc3ccc(C#Cc4cc(OCCCN)cc(OCCCN)c4)cc3c2)cc(OCCCN)c1` [Compound 120] are within 1.5-fold of each other in EC50: 40.4 µg/mL (≈ 52.7 µM) for the first, 36.4 µg/mL (≈ 58.6 µM) for the second.
